In patent US5843950A, “1,4-dihydropyridine compound and pharmaceutical composition containing the same” (Nikken Chemicals Co., Ltd., priority 1994, dated 1998):
Like-named read-outs stand apart in the source and are kept apart here.

Columns and labels:
TxA2 synthesis = TxA2 synthesis inhibiting action test (human blood platelet microsomes); format: biochemical; conditions: prostaglandin H2
Description: TxA2 Synthesis Inhibiting Action Test
One ml of a buffer (20 mM Tris-HCl buffer, 1 mM EDTA, pH 7.5) containing human blood platelet microsomes (50 μg protein/ml) and the test compound (final concentration 10^-7 M) was agitated, then incubated at 0° C. for 30 minutes. To this was added prostaglandin H2 (100 ng/2 μl). This was incubated at 23° C. for 3 minutes to cause a reaction. Next, 1M hydrochloric acid was added to make the solution acidic and stop the reaction, then this was neutralized by 1M Tris-Base and centrifuged at 3000 rpm for 20 minutes. The amount of the TxB2 in the supernatant was measured by the EIA method (Cayman Co. kit).

[1] = test system: KCl contraction in rat arteries (thoracic aorta); assay: Action easing KCl contraction in rat arteries (thoracic aorta ring); conditions: read-out: IC50 value (50% inhibitory concentration of hyperpotassium contraction), Test Example 7, Table 7, 37° C.
Description: Action easing KCl contraction in rat arteries
The specimen was stabilized for approximately 60 minutes, then a potassium chloride solution was added to the Magnus tube to give a final concentration of […]. The positive control compound or the compound of the present invention was cumulatively added from 1×10^-10 M to 1×10^-4 M when the contraction reaction occurring at that time reached equilibrium. The contraction force was recorded by an FD-pickup (made by Nihon Kodensha) via a polygraph (made by Nihon Kodensha).

[2] = test system: VCR resistant murine leukemia (P388/VCR) cells; assay: In vivo effect for overcoming resistance to vincristine in VCR resistant murine leukemia (P388/VCR) bearing mice; design: species or system CDF1 male mice
Source text: In vivo test of action suppressing proliferation of cancer cells by concomitant use with anti-cancer drug
The number of survival days were found and the life prolonging rate (T/C) with respect to the controls was found. The effect in overcoming resistance to an anti-cancer drug (T/V) was found by the following formula.
Effect for overcoming resistance to an anti-cancer drug (T/V) %
=[Life prolonging rate (T/C) in case of concomitant use of VCR and the compound of the present invention]/[Life prolonging rate (T/C) in case of VCR alone]×100
Using Compound 18 to Compound 22 and Compound 32, the same procedure was followed as in Test Example 5 to find the effect for overcoming resistance to an anti-cancer drug in vincristine (VCR) resistant murine leukemia cell bearing mice.

[3] = test system: KCl contraction in rat arteries (thoracic aorta); assay: Action easing KCl contraction in rat arteries (thoracic aorta ring); conditions: read-out: IC50 value (50% inhibitory concentration of hypercalcemic contraction), Test Example 8, Table 8
[4] = Test Example 5, Table 5, T/C with VCR + compound over T/C with VCR alone ×100
[5] = Test Example 5, Table 5, VCR 100 μg/kg i.p. 5 days with compound 100 mg/kg (verapamil 60, nicardipine 75 mg/kg)
[6] = Test Example 6, Table 6, same procedure as Test Example 5

Question: How did the “TxA2 synthesis inhibiting action Rate of suppression at 10^-7 mol (%)” value (“TxA2 synthesis inhibiting action Rate … (%)” below) (TxA2 synthesis) turn out when `CCCC1C(C(=O)OCCCc2cccnc2)=C(C)NC(C)=C1C(=O)OCCCc1cccnc1` [Compound 2, 2,6-dimethyl-4-n-propyl-1,4-dihydropyridine-3,5-dicarboxylic acid bis[3-(3-pyridyl)propyl]ester] was run?
Answer: 72.0%

Question: What about the IC50 [1] of the same molecule?
Answer: > 30 µM

Question: `CC1=C(C(=O)OCCCc2cccnc2)C(CC(C)(C)C)C(C(=O)OCCCc2cccnc2)=C(C)N1` [Compound 4, 2,6-dimethyl-4-(2,2-dimethylpropyl)-1,4-dihydropyridine-3,5-dicarboxylic acid bis[3-(3-pyridyl)propyl]ester] was tested. Which “TxA2 synthesis inhibiting action Rate … (%)” value (TxA2 synthesis) did it give?
Answer: 49.1%

Question: And the IC50 [1]?
Answer: 20.5 µM

Question: And the “Effect for overcoming resistance T/V (%)” value [2, 4]?
Answer: 136%

Question: What about the “Life prolonging rate T/C (%)” value [2, 5] of the same molecule?
Answer: 145%

Question: And the “Mean days of survival” value [2, 5]?
Answer: 14.5 days

Question: With `CC1=C(C(=O)OCCCc2cccnc2)C(C(C)c2ccccc2)C(C(=O)OCCCc2cccnc2)=C(C)N1` (centres unmarked) [Compound 7, 2,6-dimethyl-4-(1-phenylethyl)-1,4-dihydropyridine-3,5-dicarboxylic acid bis[3-(3-pyridyl)propyl]ester] as the molecule, how does the IC50 [1] read?
Answer: 13 µM

Question: How did the “TxA2 synthesis inhibiting action Rate … (%)” value (TxA2 synthesis) turn out when `CC1=C(C(=O)OCCCc2cccnc2)C(C2CCCCC2)C(C(=O)OCCCc2cccnc2)=C(C)N1` [Compound 8, 2,6-dimethyl-4-cyclohexyl-1,4-dihydropyridine-3,5-dicarboxylic acid bis[3-(3-pyridyl)propyl]ester] was run?
Answer: 63.0%

Question: `CCOC(=O)C1CC1C1C(C(=O)OCCCc2cccnc2)=C(C)NC(C)=C1C(=O)OCCCc1cccnc1` (centres unmarked) [Compound 9, 2,6-dimethyl-4-(2-ethoxycarbonylcyclopropyl)-1,4-dihydropyridine-3,5-dicarboxylic acid bis[3-(3-pyridyl)propy]ester] was tested. Which IC50 [1] did it give?
Answer: 11.5 µM

Question: `CC1=C(C(=O)OCCCc2cccnc2)C(C=Cc2ccco2)C(C(=O)OCCCc2cccnc2)=C(C)N1` [Compound 10, 2,6-dimethyl-4-(2-(2-furyl)ethenyl)-1,4-dihydropyridine-3,5-dicarboxylic acid bis[3-(3-pyridyl)propyl]ester] was tested. Which IC50 [1] did it give?
Answer: > 30 µM

Question: What does the source list for `CC(C)=CCCC(C)CC1C(C(=O)OCCCc2cccnc2)=C(C)NC(C)=C1C(=O)OCCCc1cccnc1` (centres unmarked) [Compound 11, 2,6-dimethyl-4-(2,6-dimethyl-5-heptenyl)-1,4-dihydropyridine-3,5-dicarboxylic acid bis[3-(3-pyridyl)propyl]ester]?
Answer: IC50 [1]: > 30 µM; Effect for overcoming resistance T/V (%) [2, 4]: 128%; Life prolonging rate T/C (%) [2, 5]: 137%; Mean days of survival [2, 5]: 13.7 days

Question: For `CC1=C(C(=O)OCCCc2cccnc2)C(CCc2ccccc2)C(C(=O)OCCCc2cccnc2)=C(C)N1` [Compound 12, 2,6-dimethyl-4-(2-phenylethyl)-1,4-dihydropyridine-3,5-dicarboxylic acid bis[3-(3-pyridyl)propyl]ester], which IC50 [1] is on record?
Answer: > 30 µM

Question: Which IC50 [3] does the source give for `CCCCCCCCC1C(C(=O)OCCC#N)=C(C)NC(C)=C1C(=O)OCCCc1cccnc1` (centres unmarked) [Compound 14, 2,6-dimethyl-4-n-octyl-1,4-dihydropyridine-3,5-dicarboxylic acid 3-(2-cyanoethyl) ester, 5-[3-(3-pyridyl)propyl]ester] here?
Answer: 8.4 µM

Question: Which “Effect for overcoming resistance T/V (%)” value [2, 6] does the source give for `CCC(C)C1C(C(=O)OCCCc2cccnc2)=C(C)NC(C)=C1C(=O)OCCCc1cccnc1` (centres unmarked) [Compound 19, 2,6-dimethyl-4-(1-methylpropyl)-1,4-dihydropyridine-3,5-dicarboxylic acid bis[3-(3-pyridyl)propyl]ester] here?
Answer: 173%

Question: What about the “Life prolonging rate T/C (%)” value [2, 6] of the same molecule?
Answer: 176%

Question: And the “Mean days of survival” value [2, 6]?
Answer: 18.8 days

Question: For `CCC(CC)C1C(C(=O)OCCCc2cccnc2)=C(C)NC(C)=C1C(=O)OCCCc1cccnc1` [Compound 20, 2,6-dimethyl-4-(1-ethylpropyl)-1,4-dihydropyridine-3,5-dicarboxylic acid bis[3-(3-pyridyl)propyl]ester], which IC50 [3] is on record?
Answer: 4.2 µM

Question: What about the “Effect for overcoming resistance T/V (%)” value [2, 6] of the same molecule?
Answer: 150%

Question: What about the “Life prolonging rate T/C (%)” value [2, 6] of the same molecule?
Answer: 148%

Question: What about the “Mean days of survival” value [2, 6] of the same molecule?
Answer: 15.8 days

Question: Which results are given for `CCCCC(CC)C1C(C(=O)OCCCc2cccnc2)=C(C)NC(C)=C1C(=O)OCCCc1cccnc1` (centres unmarked) [Compound 21, 2,6-dimethyl-4-(1-ethylpentyl)-1,4-dihydropyridine-3,5-dicarboxylic acid bis[3-(3-pyridyl)propyl]ester]?
Answer: IC50 [3]: 7 µM; Effect for overcoming resistance T/V (%) [2, 6]: 138%; Life prolonging rate T/C (%) [2, 6]: 140%; Mean days of survival [2, 6]: 15.0 days

Question: For `CC1=C(C(=O)OCCCc2cccnc2)C(CC(C)CC(C)(C)C)C(C(=O)OCCCc2cccnc2)=C(C)N1` (centres unmarked) [Compound 22, 2,6-dimethyl-4-(2,4,4-trimethylpentyl)-1,4-dihydropyridine-3,5-dicarboxylic acid bis[3-(3-pyridyl)propyl]ester], which IC50 [3] is on record?
Answer: 54 µM

Question: And the “Effect for overcoming resistance T/V (%)” value [2, 6]?
Answer: 150%

Question: And the “Life prolonging rate T/C (%)” value [2, 6]?
Answer: 148%

Question: And the “Mean days of survival” value [2, 6]?
Answer: 15.8 days

Question: How did the “Effect for overcoming resistance T/V (%)” value [2, 4] turn out when `CCCCCCCCC1C(C(=O)OCCN2CCN(Cc3cccnc3)CC2)=C(C)NC(C)=C1C(=O)OCCN1CCN(Cc2cccnc2)CC1` [Compound 23, 2,6-dimethyl-4-n-octyl-1,4-dihydropyridine-3,5-dicarboxylic acid bis[2-(4-(3-pyridylmethyl)piperazin-1-yl)ethyl]ester] was run?
Answer: 123%

Question: What about the “Life prolonging rate T/C (%)” value [2, 5] of the same molecule?
Answer: 132%

Question: What about the “Mean days of survival” value [2, 5] of the same molecule?
Answer: 13.2 days

Question: Which “TxA2 synthesis inhibiting action Rate … (%)” value (TxA2 synthesis) does the source give for `CC1=C(C(=O)OCCCc2cccnc2)C(C(C)C)C(C(=O)OCCN2CCN(Cc3cccnc3)CC2)=C(C)N1` (centres unmarked) [Compound 28, 2,6-dimethyl-4-isopropyl-1,4-dihydropyridine-3,5-dicarboxylic acid 3-[2-(4-(3-pyridylmethyl)piperazin-1-yl)ethyl]ester, 5-[3-(3-pyridyl)propyl]ester] here?
Answer: 60.2%

Question: Which “TxA2 synthesis inhibiting action Rate … (%)” value (TxA2 synthesis) does the source give for `CC1=C(C(=O)OCCCCc2cccnc2)C(C(C)C)C(C(=O)OCCCCc2cccnc2)=C(C)N1` [Compound 30, 2,6-dimethyl-4-isopropyl-1,4-dihydropyridine-3,5-dicarboxylic acid bis[4-(3-pyridyl)butyl]ester] here?
Answer: 69.7%

Question: How did the IC50 [3] turn out when `CC1=C(C(=O)OCCCc2cccnc2)C(CC2CCCC(C)(C)C2)C(C(=O)OCCCc2cccnc2)=C(C)N1` (centres unmarked) [Compound 33, 2,6-dimethyl-4-(3,3-dimethylcyclohexylmethyl)-1,4-dihydropyridine-3,5-dicarboxylic acid bis[3-(3-pyridyl)propyl]ester] was run?
Answer: 6.2 µM

Question: With `CC1=C(C(=O)OCCCc2cccnc2)CC(C(=O)OCCCc2cccnc2)=C(C)N1` [Control 1, reference compound] as the molecule, how does the “TxA2 synthesis inhibiting action Rate … (%)” value (TxA2 synthesis) read?
Answer: 74.7%

Question: With `CC1=C(C(=O)OCc2cccnc2)C(c2ccccc2[N+](=O)[O-])C(C(=O)OCc2cccnc2)=C(C)N1` [Control 2, reference compound] as the molecule, how does the “TxA2 synthesis inhibiting action Rate … (%)” value (TxA2 synthesis) read?
Answer: 77.9%

Question: With `CC1=C(C(=O)OCCCc2cccnc2)C(c2ccc(C(=O)O)cc2)C(C(=O)OCCCc2cccnc2)=C(C)N1` [Control 3, reference compound] as the molecule, how does the “TxA2 synthesis inhibiting action Rate … (%)” value (TxA2 synthesis) read?
Answer: 37.6%

Question: With `COCCOC(=O)C1=C(C)NC(C)=C(C(=O)OC(C)C)C1c1cccc([N+](=O)[O-])c1` (centres unmarked) [Nimodipine, reference compound] as the molecule, how does the IC50 [1] read?
Answer: 0.08 µM

Question: With `O=C(O)/C=C/c1ccc(Cn2ccnc2)cc1` [OKY-046, reference compound] as the molecule, how does the “TxA2 synthesis inhibiting action Rate … (%)” value (TxA2 synthesis) read?
Answer: 86.4%

Question: `COc1ccc(CCN(C)CCCC(C#N)(c2ccc(OC)c(OC)c2)C(C)C)cc1OC` (centres unmarked) [Verapamil, verapamil, reference compound] was tested. Which IC50 [1] did it give?
Answer: 2.35 µM

Question: What about the “Effect for overcoming resistance T/V (%)” value [2, 4] of the same molecule?
Answer: 127%

Question: What about the “Life prolonging rate T/C (%)” value [2, 5] of the same molecule?
Answer: 136%

Question: What about the “Mean days of survival” value [2, 5] of the same molecule?
Answer: 13.6 days
